Experiments:
Format in all cases: biochemical
human Lck enzyme = biological target: T1, human Lck enzyme (Homo sapiens, UniProt P06239); experiment: Lck enzyme inhibitory activity (time-resolved fluorometry, biotinylated peptide phosphorylation); conditions: biotinylated peptide phosphorylation, read-out: LCK_IC50
T1 construct: purchased Carna Biosciences, Inc. 08-170
In short: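 Readout pairs a europium cryptate-labelled anti-phosphotyrosine antibody with XL665-streptavidin, measured by time-resolved fluorescence. IC50 derived from percent inhibition against untreated controls.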

human Yes1 enzyme = biological target: T2, human Yes1 enzyme (Homo sapiens, UniProt P07947); experiment: Yes1 enzyme inhibitory activity (time-resolved fluorometry, biotinylated peptide phosphorylation); conditions: biotinylated peptide phosphorylation, read-out: YES_IC50
T2 construct: made in house
T2 sequence (P07947 whole entry): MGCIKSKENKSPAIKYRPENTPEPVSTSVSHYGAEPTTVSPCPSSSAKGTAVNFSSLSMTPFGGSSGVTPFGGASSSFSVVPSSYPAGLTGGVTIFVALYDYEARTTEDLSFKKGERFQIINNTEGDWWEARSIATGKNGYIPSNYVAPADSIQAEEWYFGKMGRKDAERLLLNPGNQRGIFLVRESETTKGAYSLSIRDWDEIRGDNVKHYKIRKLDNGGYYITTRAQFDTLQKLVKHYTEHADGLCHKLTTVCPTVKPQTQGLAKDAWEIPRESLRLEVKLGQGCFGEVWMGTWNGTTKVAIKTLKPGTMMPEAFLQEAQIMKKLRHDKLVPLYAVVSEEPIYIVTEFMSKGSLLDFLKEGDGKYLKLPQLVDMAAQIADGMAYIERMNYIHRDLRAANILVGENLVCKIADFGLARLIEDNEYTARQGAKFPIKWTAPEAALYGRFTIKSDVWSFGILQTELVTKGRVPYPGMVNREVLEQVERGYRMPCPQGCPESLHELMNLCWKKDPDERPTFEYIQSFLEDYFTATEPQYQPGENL
In short: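 Inhibition was expressed against a compound-free control to give IC50, using TR-FRET read-out (Eu-cryptate anti-pTyr antibody, streptavidin-XL665).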

human Src enzyme = biological target: T3, human Src enzyme (Homo sapiens, UniProt P12931); experiment: Src enzyme inhibitory activity (time-resolved fluorometry, biotinylated peptide phosphorylation); conditions: biotinylated peptide phosphorylation, read-out: SRC_IC50
T3 construct: purchased Carna Biosciences, Inc. 08-173
T3 sequence (P12931 whole entry): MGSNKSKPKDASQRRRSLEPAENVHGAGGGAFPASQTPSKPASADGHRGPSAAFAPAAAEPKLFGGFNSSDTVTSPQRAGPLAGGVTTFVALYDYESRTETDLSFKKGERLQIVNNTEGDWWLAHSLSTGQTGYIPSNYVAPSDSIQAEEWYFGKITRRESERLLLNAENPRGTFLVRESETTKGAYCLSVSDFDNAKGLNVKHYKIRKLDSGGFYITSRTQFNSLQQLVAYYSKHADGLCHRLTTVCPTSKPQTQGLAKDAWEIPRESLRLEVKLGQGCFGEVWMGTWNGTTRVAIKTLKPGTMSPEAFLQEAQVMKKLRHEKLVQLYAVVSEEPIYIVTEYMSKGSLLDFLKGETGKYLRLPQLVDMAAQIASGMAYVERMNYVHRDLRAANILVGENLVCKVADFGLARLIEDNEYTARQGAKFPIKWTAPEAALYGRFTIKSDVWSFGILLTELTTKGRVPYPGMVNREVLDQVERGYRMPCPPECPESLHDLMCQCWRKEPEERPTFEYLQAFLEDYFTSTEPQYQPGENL
In short: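 Compounds were tested for blocking tyrosine phosphorylation of a biotinylated peptide substrate by recombinant human Src. Phosphorylated product was quantified by time-resolved fluorometry using europium cryptate and XL665 conjugates, and IC50 was calculated against the compound-free control.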

T1 sequence (P06239 whole entry): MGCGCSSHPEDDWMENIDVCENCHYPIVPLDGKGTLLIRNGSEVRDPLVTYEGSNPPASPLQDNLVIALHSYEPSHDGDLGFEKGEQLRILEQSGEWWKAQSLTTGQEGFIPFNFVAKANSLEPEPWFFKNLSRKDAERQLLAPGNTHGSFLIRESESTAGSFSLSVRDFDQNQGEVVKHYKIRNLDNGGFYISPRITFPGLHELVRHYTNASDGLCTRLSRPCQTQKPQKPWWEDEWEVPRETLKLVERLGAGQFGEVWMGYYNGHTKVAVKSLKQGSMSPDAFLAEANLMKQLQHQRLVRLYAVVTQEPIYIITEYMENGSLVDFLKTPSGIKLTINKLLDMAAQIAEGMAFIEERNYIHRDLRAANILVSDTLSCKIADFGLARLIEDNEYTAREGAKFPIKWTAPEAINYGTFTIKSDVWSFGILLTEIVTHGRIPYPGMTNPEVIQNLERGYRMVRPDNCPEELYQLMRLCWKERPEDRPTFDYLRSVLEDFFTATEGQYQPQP

Row | Compound | IC50 (human Lck enzyme) [nM] | IC50 (human Yes1 enzyme) [nM] | IC50 (human Src enzyme) [nM]
1 | Cc1cc(Oc2ccccc2F)cc(F)c1-n1ncc(C(=O)c2cc3cc(OC(F)F)c(NS(=O)(=O)CCCF)cc3[nH]2)c1N [Example 4-24-006, N-[2-[5-amino-1-[2-fluoro-4-(2-fluorophenoxy)-6-methylphenyl]pyrazole-4-carbonyl]-5-(difluoromethoxy)-1H-indol-6-yl]-3-fluoropropane-1-sulfonamide] | 51 | 4.5 | 200
2 | Cc1cc(Oc2ccccc2F)ncc1-n1ncc(C(=O)c2cc3cc(OC(F)F)c(NS(=O)(=O)C4CC4)cc3[nH]2)c1N [Example 4-24-007, N-[2-[5-amino-1-[6-(2-fluorophenoxy)-4-methylpyridin-3-yl]pyrazole-4-carbonyl]-5-(difluoromethoxy)-1H-indol-6-yl]cyclopropanesulfonamide] | 61 | 4 | 230
3 | Cc1cc(Oc2c(F)cccc2F)ncc1-n1ncc(C(=O)c2cc3cc(OC(F)F)c(NS(=O)(=O)C4CC4)cc3[nH]2)c1N [Example 4-24-010, N-[2-[5-amino-1-[6-(2,6-difluorophenoxy)-4-methylpyridin-3-yl]pyrazole-4-carbonyl]-5-(difluoromethoxy)-1H-indol-6-yl]cyclopropanesulfonamide] | 36 | 4.3 | 150
4 | Cc1cc(Oc2c(F)cccc2F)ncc1-n1ncc(C(=O)c2cc3cc(OC(F)F)c(NS(C)(=O)=O)cc3[nH]2)c1N [Example 4-24-011, N-[2-[5-amino-1-[6-(2,6-difluorophenoxy)-4-methylpyridin-3-yl]pyrazole-4-carbonyl]-5-(difluoromethoxy)-1H-indol-6-yl]methanesulfonamide] | 13 | 2.3 | 64
5 | Cc1cc(Oc2c(F)cccc2F)ncc1-n1ncc(C(=O)c2cc3cc(OC(F)F)c(NS(=O)(=O)CCCF)cc3[nH]2)c1N [Example 4-24-012, N-[2-[5-amino-1-[6-(2,6-difluorophenoxy)-4-methylpyridin-3-yl]pyrazole-4-carbonyl]-5-(difluoromethoxy)-1H-indol-6-yl]-3-fluoropropane-1-sulfonamide] | 28 | 4 | 100
6 | Cc1cc(Oc2ccccc2F)ncc1-n1ncc(C(=O)c2cc3cc(N4CCOCC4)c(NS(=O)(=O)C4CC4)cc3[nH]2)c1N [Example 4-24-014, N-[2-[5-amino-1-[6-(2-fluorophenoxy)-4-methylpyridin-3-yl]pyrazole-4-carbonyl]-5-morpholin-4-yl-1H-indol-6-yl]cyclopropanesulfonamide] | 97 | 6.6 | 360
7 | Cc1cc(Oc2ccccc2F)ncc1-n1ncc(C(=O)c2cc3cc(N4CCOCC4)c(NS(C)(=O)=O)cc3[nH]2)c1N [Example 4-24-015, N-[2-[5-amino-1-[6-(2-fluorophenoxy)-4-methylpyridin-3-yl]pyrazole-4-carbonyl]-5-morpholin-4-yl-1H-indol-6-yl]methanesulfonamide] | 16 | 1.3 | 77
8 | Cc1cc(Oc2c(F)cccc2F)ncc1-n1ncc(C(=O)c2cc3cc(N4CCOCC4)c(NS(=O)(=O)C4CC4)cc3[nH]2)c1N [Example 4-24-017, N-[2-[5-amino-1-[6-(2,6-difluorophenoxy)-4-methylpyridin-3-yl]pyrazole-4-carbonyl]-5-morpholin-4-yl-1H-indol-6-yl]cyclopropanesulfonamide] | 65 | 4.1 | 170
9 | Cc1cc(Oc2c(F)cccc2F)ncc1-n1ncc(C(=O)c2cc3cc(N4CCOCC4)c(NS(=O)(=O)CCCF)cc3[nH]2)c1N [Example 4-24-019, N-[2-[5-amino-1-[6-(2,6-difluorophenoxy)-4-methylpyridin-3-yl]pyrazole-4-carbonyl]-5-morpholin-4-yl-1H-indol-6-yl]-3-fluoropropane-1-sulfonamide] | 62 | 3.9 | 140
10 | Cc1cc(Oc2ccccc2F)ccc1-n1ncc(C(=O)c2cc3cc(OCC(F)F)c(NS(=O)(=O)C4CC4)cc3[nH]2)c1N [Example 4-24-020, N-[2-[5-amino-1-[4-(2-fluorophenoxy)-2-methylphenyl]pyrazole-4-carbonyl]-5-(2,2-difluoroethoxy)-1H-indol-6-yl]cyclopropanesulfonamide] | 22 | 3.1 | 54

Continued by falling IC50 (human Lck enzyme), values first:

Row | IC50 (human Lck enzyme) [nM] | IC50 (human Yes1 enzyme) [nM] | IC50 (human Src enzyme) [nM] | Compound
11 | 47 | 4.7 | 240 | Cc1cc(Oc2ccccc2F)cc(F)c1-n1ncc(C(=O)c2cc3cc(OC(F)F)c(NS(=O)(=O)C4CC4)cc3[nH]2)c1N [Example 4-24-005, N-[2-[5-amino-1-[2-fluoro-4-(2-fluorophenoxy)-6-methylphenyl]pyrazole-4-carbonyl]-5-(difluoromethoxy)-1H-indol-6-yl]cyclopropanesulfonamide]
12 | 39 | 3.6 | 120 | Cc1cc(Oc2ccccc2F)ncc1-n1ncc(C(=O)c2cc3cc(OC(F)F)c(NS(=O)(=O)CCCF)cc3[nH]2)c1N [Example 4-24-009, N-[2-[5-amino-1-[6-(2-fluorophenoxy)-4-methylpyridin-3-yl]pyrazole-4-carbonyl]-5-(difluoromethoxy)-1H-indol-6-yl]-3-fluoropropane-1-sulfonamide]
13 | 32 | 0.87 | 78 | Cc1cc(Oc2ccccc2F)ncc1-n1ncc(C(=O)c2cc3cc(N4CCOCC4)c(NS(=O)(=O)CCCF)cc3[nH]2)c1N [Example 4-24-016, N-[2-[5-amino-1-[6-(2-fluorophenoxy)-4-methylpyridin-3-yl]pyrazole-4-carbonyl]-5-morpholin-4-yl-1H-indol-6-yl]-3-fluoropropane-1-sulfonamide]
14 | 27 | 2.6 | 91 | Cc1cc(Oc2c(F)cccc2F)ncc1-n1ncc(C(=O)c2cc3cc(N4CCOCC4)c(NS(C)(=O)=O)cc3[nH]2)c1N [Example 4-24-018, N-[2-[5-amino-1-[6-(2,6-difluorophenoxy)-4-methylpyridin-3-yl]pyrazole-4-carbonyl]-5-morpholin-4-yl-1H-indol-6-yl]methanesulfonamide]
15 | 19 | 2.1 | 99 | Cc1cc(Oc2ccccc2F)ncc1-n1ncc(C(=O)c2cc3cc(OC(F)F)c(NS(C)(=O)=O)cc3[nH]2)c1N [Example 4-24-008, N-[2-[5-amino-1-[6-(2-fluorophenoxy)-4-methylpyridin-3-yl]pyrazole-4-carbonyl]-5-(difluoromethoxy)-1H-indol-6-yl]methanesulfonamide]
16 | 12 | 1.6 | 40 | Cc1cc(Oc2ccccc2F)ccc1-n1ncc(C(=O)c2cc3cc(N4CCOCC4)c(NS(C)(=O)=O)cc3[nH]2)c1N [Example 4-24-013, N-[2-[5-amino-1-[4-(2-fluorophenoxy)-2-methylphenyl]pyrazole-4-carbonyl]-5-morpholin-4-yl-1H-indol-6-yl]methanesulfonamide]
17 | 9.7 | 1.7 | 22 | Cc1cc(Oc2ccccc2F)ccc1-n1ncc(C(=O)c2cc3cc(OCC(F)F)c(NS(C)(=O)=O)cc3[nH]2)c1N [Example 4-24-021, N-[2-[5-amino-1-[4-(2-fluorophenoxy)-2-methylphenyl]pyrazole-4-carbonyl]-5-(2,2-difluoroethoxy)-1H-indol-6-yl]methanesulfonamide]
